From patent US20250032442A1, “METHODS AND COMPOSITIONS FOR TREATING COGNITIVE IMPAIRMENT” (AXSOME MALTA LTD., priority 2021, published 2025)

Assays:
Assay type in all cases: in vivo, human
[1] = test system: cognitively impaired patients with EDS associated with OSA; assay: SHARP clinical study: adverse events; conditions: solriamfetol treatment, 75 then 150 mg per day oral, 2 weeks
Source text: (§1) SHARP (Solriamfetol's Effect on Cognitive Health in Apnea Participants During a Randomized Placebo-controlled Study) was a randomized, double-blind, placebo-controlled, crossover, multicenter, trial in which 59 patients with excessive daytime sleepiness (EDS) and obstructive sleep apnea (OSA), who were experiencing cognitive impairment, were all treated with solriamfetol for 2 weeks, and with placebo for 2 weeks, with the treatment periods separated by 1 week of down-titration and washout. Patients were randomized in a 1:1 ratio either to treatment with solriamfetol followed by placebo (sequence 1), or to treatment with placebo followed by solriamfetol (sequence 2). Solriamfetol was administered orally once daily, starting at 75 mg per day for the first three days and 150 mg per day for the remainder of the 2-week treatment period. The primary outcome measure was the Digit Symbol Substitution Test subtest of the Repeatable Battery for the Assessment of Neuropsychological Status (DSST RBANS). The Digit Symbol Substitution subtest is also referred to as “Coding.” The prespecified primary endpoint was the change from baseline in cognitive function as measured by the DSST RBANS after 2 weeks of treatment (average of the 2-, 4-, 6-, and 8-hour post-dose DSST RBANS scores). […] The secondary endpoints were analyzed in a pre-specified testing sequence. […]

[2] = test system: cognitively impaired patients with EDS associated with OSA; assay: SHARP clinical study: Epworth Sleepiness Scale (ESS); conditions: 2 weeks treatment, 150 mg per day
Source text: as §1

[3] = test system: cognitively impaired patients with EDS associated with OSA; assay: SHARP clinical study: Digit Symbol Substitution Test subtest of RBANS (DSST RBANS)
Source text: as §1

[4] = test system: cognitively impaired patients with EDS associated with OSA; assay: SHARP clinical study: British Columbia Cognitive Complaints Inventory (BC-CCI); conditions: 2 weeks treatment, 150 mg per day
Source text: as §1

## NC(=O)OC[C@H](N)Cc1ccccc1 [solriamfetol, (R)-2-amino-3-phenylpropyl carbamate]
[1]
  adverse event incidence: anxiety: 3.4%
  adverse event incidence: nausea: 6.9%
[2]
  effect size, ESS vs. placebo: 0.50
[2]; p=0.004
  improvement on the ESS relative to placebo: approximately twice that observed with placebo
[3]; 2 weeks treatment, 150 mg per day
  effect size, DSST RBANS vs. placebo: 0.36
[3]; after 2 weeks oral once daily (75 mg 3 days, then 150 mg), average of 2-, 4-, 6-, 8-hour post-dose scores, placebo 4.75, p=0.009
  change from baseline on the DSST RBANS: 6.49
[4]
  effect size, BC-CCI overall score vs. placebo: 0.43
[4]; p=0.002
  improvement in cognitive function, BC-CCI overall score compared to placebo: Statistically significant improvement
